Experimental data: patent US5140009A (Tap Pharmaceuticals, Inc., priority 1990, dated 1992)
Like-named read-outs stand apart in the source and are kept apart here. Numbered stars: 1 amine (or outer) side, 2 acyl side, 3 side chain; on linkers, the order of the positions; unused ones are H or OH. Square brackets hold non-standard residues; d marks the D form. Side chains are listed from the residue outwards. Peptide text beside a SMILES is read from it. * marks the point of attachment. Propanoyl(3-indol-3-yl) = O=C(CCc1c[nH]c2ccccc12)*; Butyryl(4-indol-3-yl) = O=C(CCCc1c[nH]c2ccccc12)*; Propanoyl(3-(4-F-phenyl)) = O=C(CCc1ccc(F)cc1)*; Acetyl(1-naphthyl) = O=C(Cc1cccc2ccccc12)*; dPhe(4-Cl) = N[C@H](Cc1ccc(Cl)cc1)C(=O)O; d1Nal = N[C@H](Cc1cccc2ccccc12)C(=O)O; d2Nal = N[C@H](Cc1ccc2ccccc2c1)C(=O)O; Cyclopentanecarbonyl = O=C(C1CCCC1)*; Lys(iPr) = CC(C)NCCCC[C@H](N)C(=O)O; NMeY = CN[C@@H](Cc1ccc(O)cc1)C(=O)O; NMeF = CN[C@@H](Cc1ccccc1)C(=O)O; d3Pal = N[C@H](Cc1cccnc1)C(=O)O; X11 = CN(C)c1ccc(C=CC(=O)*)cc1; dCha = N[C@H](CC1CCCCC1)C(=O)O; NHPhenethyl = c1ccc(CCN*)cc1; Nicotinoyl = O=C(c1cccnc1)*; Picolinoyl = O=C(c1ccccn1)*; X14 = O=C(CCn1ccc2ccccc21)*; Morpholide = C1CN(*)CCO1; CO = O=C([*:1])[*:2]

What was measured:
[1] = test system: male castrate rats; assay: In vivo LH Inhibiton; set-up: species or system rat; conditions: table 4, 30 ug/kg subcutaneously by bolus injection, AUC of log (LHt /LHi)
Method: (c) In vivo LH Inhibiton. The compound to be tested is administered at 30 ug/kg subcutaneously by bolus injection to male castrate rats and blood samples are collected periodically over 24 hours. The AUC (area under the curve) of the LH suppression data as a function of time is calculated using the formula log (LHt /LHi) wherein LHt is the LH concentration in the blood at time t and LHi is the initial baseline LH concentration in the blood. The AUC values are negative numbers.

[2] = target: T1, LHRH receptors (Rattus norvegicus, UniProt P30969); assay: Receptor Binding (radioligand receptor binding assay); conditions: rat pituitary membranes, 2 hours at 4° C., read-out: Receptor Binding pkI (converted)
T1 construct: Pituitary membranes containing LHRH receptors are prepared in batches from quick-frozen rat pituitaries; tissue Hilltop Labs; host or cells: rat pituitary membranes
T1 sequence (P30969 1-327): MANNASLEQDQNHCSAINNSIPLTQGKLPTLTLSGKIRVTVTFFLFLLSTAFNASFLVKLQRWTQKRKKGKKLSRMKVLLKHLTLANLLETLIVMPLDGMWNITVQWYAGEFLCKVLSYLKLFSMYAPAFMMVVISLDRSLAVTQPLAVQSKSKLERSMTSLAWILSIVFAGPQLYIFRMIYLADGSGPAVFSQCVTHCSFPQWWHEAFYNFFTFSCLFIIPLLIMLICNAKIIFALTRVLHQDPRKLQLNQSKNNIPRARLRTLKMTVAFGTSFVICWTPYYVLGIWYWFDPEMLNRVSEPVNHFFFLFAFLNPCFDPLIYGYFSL

[3] = table 3, radioiodinated [D-Leu^6 -des Gly^10 ]-LHRH ethyl amide 50 pM

Ki [2, 3] [nM] | Ki ([2]; table 4, radioligand 50 pM) [nM] | Molecule | also measured
 |  | (3-10)[N-(3-(4-Fluorophenyl)propionyl)-D-Trp^3 -NMeTyr^5 -D-Lys^6 (N-epsilon-nicotinyl)-D-Ala^10 ]LHRH [Compound 163] | AUC (24 hr. after 30 ug/kg) [1]: -361
 |  | (3-10)[N-(3-(4-Fluorophenyl)propionyl)-D-Thia^3 -NMeTyr^5 -D-Lys^6 -D-Ala^ ]LHRH [Compound 166] | AUC (24 hr. after 30 ug/kg) [1]: -208
 |  | (3-10)[N-(3-(4-Fluorophenyl)propionyl)-D-1-Nal^3 -D-Lys^6 (N-epsilon-4-methoxybenzoyl)-Lys^8 (N-epsilon-isopropyl)-D-Ala^10 ]LHRH [Compound 206] | AUC (24 hr. after 30 ug/kg) [1]: -412
0.398 |  | CCNC(=O)[C@@H]1CCCN1C(=O)[C@H](CCCNC(=N)N)NC(=O)[C@H](CC(C)C)NC(=O)[C@@H](Cc1c[nH]c2ccccc12)NC(=O)[C@H](Cc1ccc(O)cc1)NC(=O)[C@H](CO)NC(=O)[C@H](Cc1c[nH]c2ccccc12)NC(=O)[C@@H](Cc1ccccc1)NC(C)=O [Compound 134, N-Acetyl-D-Phe-Trp-Ser-Tyr-D-Trp-Leu-Arg-ProNHEt] (Ac-[dF]WSY[dW]LRP-NHEt) | 
 | 0.00891 | CC(C)C[C@H](NC(=O)[C@@H](CCCCNC(=O)N1CCOCC1)NC(=O)[C@H](Cc1ccc(O)cc1)N(C)C(=O)[C@H](CO)NC(=O)[C@@H](Cc1cccc2ccccc12)NC(=O)CCc1ccc(F)cc1)C(=O)N[C@@H](CCCNC(=N)N)C(=O)N1CCC[C@H]1C(=O)N[C@H](C)C(N)=O [Compound 210, N-(3-(4-Fluorophenyl)propionyl)-D-1-Nal-Ser-NMeTyr-D-Lys(N-epsilon-morpholinecarbonyl)-Leu-Arg-Pro-D-AlaNH2] ({Propanoyl(3-(4-F-phenyl))}-[d1Nal]S[NMeY][dK]([CO-Morpholide])LRP[dA]-NH2) | 
 | 0.0257 | CCNC(=O)[C@@H]1CCCN1C(=O)[C@H](CCCN=C(N)N)NC(=O)[C@H](CC(C)C)NC(=O)[C@@H](Cc1c[nH]c2ccccc12)NC(=O)[C@H](Cc1ccc(O)cc1)NC(=O)[C@H](CO)NC(=O)[C@@H](Cc1ccc(O)cc1)NC(=O)CCc1ccc(F)cc1 [Compound 141, (3-9)[N-(3-(4-Fluorophenyl)propionyl) -D-Tyr^3 -D-Trp^6 -Pro^9 NHEt]LHRH] ({Propanoyl(3-(4-F-phenyl))}-[dY]SY[dW]LRP-NHEt) | 
41.7 |  | CCNC(=O)[C@@H]1CCCN1C(=O)[C@H](CCCNC(=N)N)NC(=O)[C@H](CC(C)C)NC(=O)[C@@H](CC1CCCCC1)NC(=O)[C@H](Cc1ccc(O)cc1)NC(=O)[C@H](CO)NC(=O)CCn1ccc2ccccc21 [Compound 34, (4-9)[N-(3-(1-Indole)propionyl)-Ser^4 -D-Cha^6 -Pro^9 -NHEt]LHRH] (X14-SY[dCha]LRP-NHEt) | 
 | 0.0148 | CC(C)C[C@H](NC(=O)[C@@H](CCCCNC(=O)N1CCOCC1)NC(=O)[C@H](Cc1ccc(O)cc1)N(C)C(=O)[C@H](CO)NC(=O)[C@@H](Cc1cccc2ccccc12)NC(=O)CCc1ccc(F)cc1)C(=O)N[C@@H](CCCCNC(C)C)C(=O)N1CCC[C@H]1C(=O)N[C@H](C)C(N)=O [Compound 213, N-(3-(4-Fluorophenyl)propionyl)-D-1-Nal-Ser-NMeTyr-D-Lys(N-epsilon-morpholnecarbonyl)-Leu-Lys(N-epsilon-isopropyl)-Pro-D-AlaNH2] ({Propanoyl(3-(4-F-phenyl))}-[d1Nal]S[NMeY][dK]([CO-Morpholide])L[Lys(iPr)]P[dA]-NH2) | 
17 |  | CCNC(=O)[C@@H]1CCCN1C(=O)[C@H](CCCNC(=N)N)NC(=O)[C@H](CC(C)C)NC(=O)[C@@H](CC1CCCCC1)NC(=O)[C@H](Cc1ccc(O)cc1)NC(=O)[C@H](CO)NC(=O)CCCc1c[nH]c2ccccc12 [Compound 36, (4-9)[N-(4-(3-Indole)butyryl)-Ser^4 -D-Cha^6 -Pro^9 -NHEt]LHRH] ({Butyryl(4-indol-3-yl)}-SY[dCha]LRP-NHEt) | 
 | 0.00631 | CC(C)C[C@H](NC(=O)[C@@H](CCCCN)NC(=O)[C@H](Cc1ccc(O)cc1)N(C)C(=O)[C@H](CO)NC(=O)[C@@H](Cc1ccc(Cl)cc1)NC(=O)CCc1ccc(F)cc1)C(=O)N[C@@H](CCCNC(=N)N)C(=O)N1CCC[C@H]1C(=O)N[C@H](C)C(N)=O [Compound 175, (3-10)[N-(3-(4-Fluorophenyl)propionyl)-D-4-Cl-Phe^3 -NMeTyr^5 -D-Lys^6 -D-Ala^10]LHRH] ({Propanoyl(3-(4-F-phenyl))}-[dPhe(4-Cl)]S[NMeY][dK]LRP[dA]-NH2) | 
0.347 |  | CCNC(=O)[C@@H]1CCCN1C(=O)[C@H](CCCNC(=N)N)NC(=O)[C@H](CC(C)C)NC(=O)[C@@H](Cc1c[nH]c2ccccc12)NC(=O)[C@H](Cc1ccc(O)cc1)NC(=O)[C@H](CO)NC(=O)[C@H](Cc1c[nH]c2ccccc12)NC(=O)[C@H](Cc1ccccc1)NC(=O)NCCc1ccccc1 [Compound 124, (2-9)[N-(N-alpha-Phenethylaminocarbonyl)-Phe^2 -D-Trp^6 -Pro^9 NHEt]LHRH] ({NHPhenethyl-CO}-FWSY[dW]LRP-NHEt) | 
20.4 |  | CCNC(=O)[C@@H]1CCCN1C(=O)[C@H](CCCNC(=N)N)NC(=O)[C@H](CC(C)C)NC(=O)[C@@H](CCCNC(=N)N)NC(=O)[C@H](Cc1ccc(O)cc1)NC(=O)[C@H](CO)NC(=O)Cc1cccc2ccccc12 [Compound 37, (4-9)[N-(1-Naphthylacetyl)-Ser^4 -D-Arg^6 -Pro^9 -NHEt] LHRH] ({Acetyl(1-naphthyl)}-SY[dR]LRP-NHEt) | 
 | 0.0126 | CC(C)C[C@H](NC(=O)[C@@H](Cc1cccnc1)NC(=O)[C@H](Cc1ccc(O)cc1)N(C)C(=O)[C@H](CO)NC(=O)[C@@H](Cc1cccc2ccccc12)NC(=O)CCc1ccc(F)cc1)C(=O)N[C@@H](CCCCNC(C)C)C(=O)N1CCC[C@H]1C(=O)N[C@H](C)C(N)=O [Compound 208, (3-10)[N-(3-(4-Fluorophenyl)propionyl)-D-1-Nal^3 -NMeTyr^5 -D-3-Pal^6 -Lys^8 (N-epsilon-isopropyl)-D-Ala^10]LHRH] ({Propanoyl(3-(4-F-phenyl))}-[d1Nal]S[NMeY][d3Pal]L[Lys(iPr)]P[dA]-NH2) | 
 | 0.0302 | CC(C)C[C@H](NC(=O)[C@@H](CCCCNC(=O)c1cccnc1)NC(=O)[C@H](Cc1ccccc1)N(C)C(=O)[C@H](CO)NC(=O)[C@@H](Cc1cccc2ccccc12)NC(=O)CCc1ccc(F)cc1)C(=O)N[C@@H](CCCCNC(C)C)C(=O)N1CCC[C@H]1C(=O)N[C@H](C)C(N)=O [Compound 205, (3-10)[N-(3-(4-Fluorophenyl)propionyl)-D-1-Nal^3 -NMePhe^5 -D-Lys^6 (N-epsilon-nicotinyl)-D-Ala^10]LHRH] ({Propanoyl(3-(4-F-phenyl))}-[d1Nal]S[NMeF][dK](Nicotinoyl)L[Lys(iPr)]P[dA]-NH2) | 
0.309 |  | CCNC(=O)[C@@H]1CCCN1C(=O)[C@H](CCCNC(=N)N)NC(=O)[C@H](CC(C)C)NC(=O)[C@@H](Cc1ccc2ccccc2c1)NC(=O)[C@H](Cc1ccc(O)cc1)NC(=O)[C@H](CO)NC(=O)[C@@H](Cc1c[nH]c2ccccc12)NC(=O)CCc1ccc(F)cc1 [Compound 94, (3-9)[N-(3-(4-Fluorophenyl)propionyl) -D-Trp^3 -D-2-Nal^6 -Pro^9 NHEt]LHRH] ({Propanoyl(3-(4-F-phenyl))}-[dW]SY[d2Nal]LRP-NHEt) | 
0.0331 |  | CCNC(=O)[C@@H]1CCCN1C(=O)[C@H](CCCNC(=N)N)NC(=O)[C@H](CC(C)C)NC(=O)[C@@H](Cc1c[nH]c2ccccc12)NC(=O)[C@H](Cc1ccc(O)cc1)NC(=O)[C@H](CO)NC(=O)[C@H](Cc1c[nH]c2ccccc12)NC(=O)CCc1ccc(F)cc1 [Compound 97, (3-9)[N-(3-(4-Fluorophenyl)propionyl) -Trp^3 -D-Trp^6 -Pro^9 NHEt]LHRH] ({Propanoyl(3-(4-F-phenyl))}-WSY[dW]LRP-NHEt) | 
27.5 |  | CCNC(=O)[C@@H]1CCCN1C(=O)[C@H](CCCNC(=N)N)NC(=O)[C@H](CC(C)C)NC(=O)[C@@H](CCCCNC(=O)c1ccccn1)NC(=O)[C@H](Cc1ccc(O)cc1)NC(=O)[C@H](CO)NC(=O)CCc1c[nH]c2ccccc12 [Compound 53] ({Propanoyl(3-indol-3-yl)}-SY[dK](Picolinoyl)LRP-NHEt) | 
0.145 |  | CCNC(=O)[C@@H]1CCCN1C(=O)[C@H](CCCNC(=N)N)NC(=O)[C@H](CC(C)C)NC(=O)[C@@H](CCCNC(=N)N)NC(=O)[C@H](Cc1ccc(O)cc1)NC(=O)[C@H](CO)NC(=O)[C@H](Cc1c[nH]c2ccccc12)NC(=O)[C@H](Cc1ccccc1)NC(=O)C1CCCC1 [Compound 70, N-(Cyclopentylcarbonyl)-Phe-Trp-Ser-Tyr-D-Arg-Leu-Arg-Pro-NHEt] (Cyclopentanecarbonyl-FWSY[dR]LRP-NHEt) | 
437 |  | CCNC(=O)[C@@H]1CCCN1C(=O)[C@H](CCCNC(=N)N)NC(=O)[C@H](CC(C)C)NC(=O)[C@@H](CC(C)C)NC(=O)[C@H](Cc1ccc(O)cc1)NC(=O)[C@H](CO)NC(=O)[C@H](Cc1c[nH]c2ccccc12)NC(=O)C=Cc1ccc(N(C)C)cc1 [Compound 64, (3-9)[N-((para-Dimethylamino)cinnamoyl)-Trp^3 -D-Leu^6 -Pro^9 -NHEt]LHRH] (X11-WSY[dL]LRP-NHEt) | 
